Laboratory results from patent US20080146669A1, “Novel Chloride Channel Pore Openers” (THE UAB RESEARCH FOUNDATION, priority 2005, published 2008).
Like-named read-outs stand apart in the source and are kept apart here.

Legend:
wild-type CFTR [1] = molecular target: T1, wild-type CFTR (Homo sapiens, UniProt P13569); test: Micropatch (multichannel) recording of BHK-CFTR patches, opening rate and Po; type: biochemical; set-up: expressed in transfected cells; provided by J. Hanrahan (McGill University)
T1 sequence (P13569 whole entry): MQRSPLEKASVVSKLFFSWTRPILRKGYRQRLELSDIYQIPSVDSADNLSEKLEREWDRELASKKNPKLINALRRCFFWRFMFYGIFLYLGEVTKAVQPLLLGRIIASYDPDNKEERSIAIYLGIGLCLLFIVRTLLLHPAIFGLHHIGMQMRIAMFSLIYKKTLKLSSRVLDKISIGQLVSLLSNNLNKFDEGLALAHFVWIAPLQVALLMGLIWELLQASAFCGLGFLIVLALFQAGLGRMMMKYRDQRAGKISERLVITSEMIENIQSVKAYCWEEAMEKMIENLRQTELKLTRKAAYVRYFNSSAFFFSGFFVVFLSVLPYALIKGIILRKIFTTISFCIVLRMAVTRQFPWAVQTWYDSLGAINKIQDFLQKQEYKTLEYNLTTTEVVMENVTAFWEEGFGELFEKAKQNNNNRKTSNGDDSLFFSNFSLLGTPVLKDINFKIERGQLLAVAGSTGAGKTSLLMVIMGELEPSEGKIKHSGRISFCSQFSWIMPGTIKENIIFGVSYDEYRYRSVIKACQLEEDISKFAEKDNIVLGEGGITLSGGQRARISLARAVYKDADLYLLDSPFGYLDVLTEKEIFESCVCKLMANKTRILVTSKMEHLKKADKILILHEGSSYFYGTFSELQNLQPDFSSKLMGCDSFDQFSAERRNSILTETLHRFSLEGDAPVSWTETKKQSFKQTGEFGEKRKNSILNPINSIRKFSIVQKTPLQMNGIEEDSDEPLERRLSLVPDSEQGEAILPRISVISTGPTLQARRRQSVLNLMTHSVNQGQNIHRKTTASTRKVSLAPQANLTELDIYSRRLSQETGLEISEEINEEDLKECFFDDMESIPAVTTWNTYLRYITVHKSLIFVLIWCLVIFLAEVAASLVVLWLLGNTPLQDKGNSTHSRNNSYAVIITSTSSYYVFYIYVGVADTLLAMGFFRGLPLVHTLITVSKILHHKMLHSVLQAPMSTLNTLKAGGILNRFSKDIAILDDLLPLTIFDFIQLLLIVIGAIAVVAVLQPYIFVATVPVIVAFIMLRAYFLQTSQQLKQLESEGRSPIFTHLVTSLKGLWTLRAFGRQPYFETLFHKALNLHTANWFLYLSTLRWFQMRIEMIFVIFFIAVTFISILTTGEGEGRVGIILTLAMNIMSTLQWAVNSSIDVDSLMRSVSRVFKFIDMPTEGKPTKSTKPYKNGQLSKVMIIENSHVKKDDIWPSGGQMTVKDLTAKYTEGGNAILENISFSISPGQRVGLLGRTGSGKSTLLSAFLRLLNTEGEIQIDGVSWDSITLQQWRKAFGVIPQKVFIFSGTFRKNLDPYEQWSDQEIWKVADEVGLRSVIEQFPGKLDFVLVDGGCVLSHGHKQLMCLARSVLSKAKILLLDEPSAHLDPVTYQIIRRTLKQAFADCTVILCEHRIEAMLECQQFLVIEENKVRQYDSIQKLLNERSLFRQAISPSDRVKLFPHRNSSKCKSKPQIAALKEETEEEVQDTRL
Protocol: Cell culture DNA constructs and transfections. Baby hamster kidney (BHK) cells stably expressing wild type human CFTR (BHK-CFTR) were provided by J. Hanrahan (McGill University). BHK-CFTR cells were cultured in Dulbecco's modified Eagle's medium (DMEM (Mediatech)) supplemented with 5% fetal bovine serum (FBS) and 1 mM penicillin-streptomycin. The growth media for the BHK-CFTR cells also contained 0.5 mM methotrexate to maintain selection for CFTR-expressing cells (22). HEK-293T cells were transiently transfected with wild-type or mutant CFTR cDNA using the Lipofectamine transfection kit following manufacturer's recommendations (Invitrogen, Corp). HEK-293T cells were cultured in DMEM. All cells were grown on plastic coverslips for patch clamp recording and were used 2-3 days post-seeding. Electrophysiology and data analysis. Macroscopic and multi-channel currents were recorded in the excised, inside-out configuration. Patch pipettes were pulled from Corning 8161 glass to tip resistances of […] (macroscopic recordings) or 8-10 mOhm (micropatch studies). […] CFTR currents were recorded in symmetrical solution containing (in mM): 140 N-methyl-D-glucaniine-Cl, 3 MgCl2, 1 EGTA and 10 TES. The pH was adjusted to 7.3. Macroscopic currents were evoked using a ramp protocol from +80 to −80 mV with a 10 sec time period. Patches were held at −80 mV or +80 mV for micropatch (multichannel) recordings. All patch clamp experiments were performed at 21-23° C. Signals from macroscopic and single channel recording were filtered at 20 and 200 Hz, respectively. Data acquisition and analysis were performed using pCLAMP8 and pCLAMP9 software (Axon Instruments). Curve fitting for kinetic analysis was performed using Microcal Origin software. Averaged data are presented as mean +/−SEM. Statistical comparisons were made by performing unpaired t-tests unless otherwise indicated. […]

[2] = tested on: parental CFBE41o- monolayers; test: Ussing chamber transepithelial currents, parental CFBE41o- monolayers; type: cell-based, human; settings: n=6, data not shown
Protocol: Cell culture DNA constructs and transfections. Baby hamster kidney (BHK) cells stably expressing wild type human CFTR (BHK-CFTR) were provided by J. Hanrahan (McGill University). BHK-CFTR cells were cultured in Dulbecco's modified Eagle's medium (DMEM (Mediatech)) supplemented with 5% fetal bovine serum (FBS) and 1 mM penicillin-streptomycin. The growth media for the BHK-CFTR cells also contained 0.5 mM methotrexate to maintain selection for CFTR-expressing cells (22). HEK-293T cells were transiently transfected with wild-type or mutant CFTR cDNA using the Lipofectamine transfection kit following manufacturer's recommendations (Invitrogen, Corp). HEK-293T cells were cultured in DMEM. All cells were grown on plastic coverslips for patch clamp recording and were used 2-3 days post-seeding. Electrophysiology and data analysis. Macroscopic and multi-channel currents were recorded in the excised, inside-out configuration. Patch pipettes were pulled from Corning 8161 glass to tip resistances of […] (macroscopic recordings) or 8-10 mOhm (micropatch studies). CFTR channels were activated following patch excision by exposure of the cytoplasmic face of the patch to catalytic subunit of protein kinase A (PKA; 110 U/ml; Promega) and Mg-ATP (1.5 mM). CFTR currents were recorded in symmetrical solution containing (in mM): 140 N-methyl-D-glucaniine-Cl, 3 MgCl2, 1 EGTA and 10 TES. […]

ΔF508-CFTR [3] = molecular target: T2, ΔF508-CFTR (Homo sapiens, UniProt P13569, DEL508-508); test: Micropatch recording of HEK-293T patches expressing ΔF508-CFTR, opening rate and Po; type: biochemical
T2 construct: expressed in transfected cells; host or cells: HEK-293T, transient; grown at 28° C. for 24 hrs
T2 sequence (P13569 with tags, fused parts or gaps DEL508-508): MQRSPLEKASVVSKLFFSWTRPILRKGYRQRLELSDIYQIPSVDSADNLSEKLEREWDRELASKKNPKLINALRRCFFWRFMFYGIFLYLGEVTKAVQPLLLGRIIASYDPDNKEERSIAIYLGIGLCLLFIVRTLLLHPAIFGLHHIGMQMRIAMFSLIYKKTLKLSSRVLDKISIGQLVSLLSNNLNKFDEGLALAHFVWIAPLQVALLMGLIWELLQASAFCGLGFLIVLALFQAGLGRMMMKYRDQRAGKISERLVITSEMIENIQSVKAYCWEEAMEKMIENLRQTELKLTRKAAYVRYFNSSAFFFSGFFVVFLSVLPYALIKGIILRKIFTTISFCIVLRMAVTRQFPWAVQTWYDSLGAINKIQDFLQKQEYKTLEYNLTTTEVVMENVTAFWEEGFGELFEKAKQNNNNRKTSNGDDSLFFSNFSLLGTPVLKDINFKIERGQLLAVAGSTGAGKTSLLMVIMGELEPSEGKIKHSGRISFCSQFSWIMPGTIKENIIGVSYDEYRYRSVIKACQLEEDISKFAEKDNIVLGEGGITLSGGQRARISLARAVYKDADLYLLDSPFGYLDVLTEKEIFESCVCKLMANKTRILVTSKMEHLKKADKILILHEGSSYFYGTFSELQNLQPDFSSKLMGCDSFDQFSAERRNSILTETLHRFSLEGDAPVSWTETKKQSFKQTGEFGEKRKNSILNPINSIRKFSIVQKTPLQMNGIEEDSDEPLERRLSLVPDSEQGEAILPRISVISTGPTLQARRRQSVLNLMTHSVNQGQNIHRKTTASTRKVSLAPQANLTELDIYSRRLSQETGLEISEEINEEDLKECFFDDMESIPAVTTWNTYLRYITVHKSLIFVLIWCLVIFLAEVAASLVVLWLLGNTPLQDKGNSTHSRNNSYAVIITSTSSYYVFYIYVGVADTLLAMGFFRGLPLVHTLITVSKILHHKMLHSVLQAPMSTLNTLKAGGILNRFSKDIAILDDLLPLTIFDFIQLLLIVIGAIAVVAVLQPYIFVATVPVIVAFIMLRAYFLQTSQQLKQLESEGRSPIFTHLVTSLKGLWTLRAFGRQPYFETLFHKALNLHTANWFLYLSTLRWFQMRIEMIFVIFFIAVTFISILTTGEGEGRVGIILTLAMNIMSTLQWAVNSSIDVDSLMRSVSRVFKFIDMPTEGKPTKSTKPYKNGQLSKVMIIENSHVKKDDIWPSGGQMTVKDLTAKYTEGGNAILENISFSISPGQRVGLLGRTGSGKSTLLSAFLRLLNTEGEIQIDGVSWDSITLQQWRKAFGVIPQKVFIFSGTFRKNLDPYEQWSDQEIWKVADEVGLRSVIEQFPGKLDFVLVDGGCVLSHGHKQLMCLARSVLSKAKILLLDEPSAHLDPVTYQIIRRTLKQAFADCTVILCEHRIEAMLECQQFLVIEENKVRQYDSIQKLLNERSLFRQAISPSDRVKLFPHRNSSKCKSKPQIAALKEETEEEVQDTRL
Protocol: (§1) Cell culture DNA constructs and transfections. Baby hamster kidney (BHK) cells stably expressing wild type human CFTR (BHK-CFTR) were provided by J. Hanrahan (McGill University). BHK-CFTR cells were cultured in Dulbecco's modified Eagle's medium (DMEM (Mediatech)) supplemented with 5% fetal bovine serum (FBS) and 1 mM penicillin-streptomycin. The growth media for the BHK-CFTR cells also contained 0.5 mM methotrexate to maintain selection for CFTR-expressing cells (22). HEK-293T cells were transiently transfected with wild-type or mutant CFTR cDNA using the Lipofectamine transfection kit following manufacturer's recommendations (Invitrogen, Corp). HEK-293T cells were cultured in DMEM. All cells were grown on plastic coverslips for patch clamp recording and were used 2-3 days post-seeding. Electrophysiology and data analysis. Macroscopic and multi-channel currents were recorded in the excised, inside-out configuration. Patch pipettes were pulled from Corning 8161 glass to tip resistances of […] (macroscopic recordings) or 8-10 mOhm (micropatch studies). CFTR channels were activated following patch excision by exposure of the cytoplasmic face of the patch to catalytic subunit of protein kinase A (PKA; 110 U/ml; Promega) and Mg-ATP (1.5 mM). CFTR currents were recorded in symmetrical solution containing (in mM): 140 N-methyl-D-glucaniine-Cl, 3 MgCl2, 1 EGTA and 10 TES. The pH was adjusted to 7.3. Macroscopic currents were evoked using a ramp protocol from +80 to −80 mV with a 10 sec time period. Patches were held at −80 mV or +80 mV for micropatch (multichannel) recordings. All patch clamp experiments were performed at 21-23° C. Signals from macroscopic and single channel recording were filtered at 20 and 200 Hz, respectively. Data acquisition and analysis were performed using pCLAMP8 and pCLAMP9 software (Axon Instruments). Curve fitting for kinetic analysis was performed using Microcal Origin software. Averaged data are presented as mean +/−SEM. Statistical comparisons were made by performing unpaired t-tests unless otherwise indicated. Ussing Chamber Experiments-CFBE41o epithelial cells stably transfected with ΔF508-CFTR or transiently transfected with wild-type CFTR were cultured as electrically resistive monolayers and assayed in Ussing chambers as described (16). ΔF508-CFTR-expressing monolayers were grown at 27° C. for 2-3 days to enhance the surface expression of this temperature-sensitive mutant. A serosal-to-mucosal Cl^− gradient (120 to 1.2 mM) was imposed, followed by amiloride addition (100 μM) to block Na^+ currents. Compounds were added to both chambers at the indicated concentrations. A 3-mV voltage pulse was imposed every 100 s to monitor transepithelial resistance.

ΔF508-CFTR [4] = molecular target: T2, ΔF508-CFTR; test: Macroscopic currents in excised patches from temperature-corrected HEK-293T cells expressing ΔF508-CFTR; type: biochemical
Protocol: as §1

CFTR-minus cells = test: Currents across patches excised from CFTR-minus (untransfected) cells; type: biochemical
Protocol: as §1

wild-type CFTR [5] = molecular target: T1, wild-type CFTR; test: Macroscopic currents in excised inside-out patches from BHK-CFTR cells; type: biochemical; set-up: expressed in transfected cells; provided by J. Hanrahan (McGill University); settings: for EC50: moderately phosphorylated wild-type channels, normalized to peak current at 10 μM, read-out: EC50 of CFTR current stimulation (titration)
Protocol: as §1, with “CFTR channels were activated following patch excision by exposure of the cytoplasmic face of the patch to catalytic subunit of protein kinase A (PKA; 110 U/ml; Promega) and Mg-ATP (1.5 mM).” left out

[6] = 10 μM, poorly phosphorylated, −80 mV, best guess estimate, mean±S.E., n=7
[7] = 10 μM, high PKA, 1.5 mM MgATP, −80 mV, best guess estimate, mean±S.E., n=4

- mean single channel opening rate, post compound (wild-type CFTR [1]; [6]): 1.07±0.29 openings/s/channel
- single channel Po, post compound (wild-type CFTR [1]; [6]): 0.26±0.06
- mean single channel opening rate, post compound (ΔF508-CFTR [3]; [7]): 0.87±0.31 openings/s/channel
- single channel Po, post compound (ΔF508-CFTR [3]; [7]): 0.25±0.07
- simultaneous openings after compound addition (ΔF508-CFTR [3]; 10 μM, representative micropatch, no more than 2 before addition): 12-15
- effect on ΔF508-CFTR channel opening rate (ΔF508-CFTR [3]; fewer than 10 detectable channels per patch): large increase in channel opening rate
- increase in ΔF508-CFTR macroscopic currents (ΔF508-CFTR [4]; 10 μM, 1.5 mM Mg-ATP and 110 U/ml PKA): 10-15 fold
- effect on ΔF508-CFTR macroscopic currents (ΔF508-CFTR [4]; 10 μM, high PKA 110 U/ml without PKI): dramatically stimulated
- effect on ΔF508-CFTR channel activity in the absence of active kinase (ΔF508-CFTR [4]; added after PKI): markedly stimulated
- increase of the current (wild-type CFTR [5]; 125 nM, mean titration data, n=8): approximately 20%
- increase of the current (wild-type CFTR [5]; 250 nM, representative patch): 25%
- effect on currents of poorly phosphorylated or thiolated CFTR channels (wild-type CFTR [5]; 10 μM): effectively stimulated the currents
- effect on currents of moderately phosphorylated wild-type channels (wild-type CFTR [5]; 10 μM, high PKA followed by PKI): stimulates currents in both directions
- effect on the Mg-ATP sensitivity of CFTR activity (wild-type CFTR [5]; Mg-ATP titration with and without compound, data not shown): no obvious effect
- EC50 (wild-type CFTR [5]; listed as NPPB-AM): 960 nM
- EC50 (wild-type CFTR [5]): 710 nM
- lowest concentration with detectable increases in CFTR currents (wild-type CFTR [5]; titration experiments): 250 nM
SMILES: NC(=O)c1cc([N+](=O)[O-])ccc1NCCCc1ccccc1 [NPPB-Am]
- effect on opening rates and mean single channel open probabilities (Pos) (wild-type CFTR [1]; poorly phosphorylated (2 U/ml PKA), fewer than 10 channels per patch): markedly increased the opening rates and mean single channel open probabilities
- increase in transepithelial current [2]: 1.1+/−2.7 μA/cm^2
- effect on currents across membrane patches excised from CFTR-minus cells (CFTR-minus cells; data not shown): no effect
- effect on currents across a patch from untransfected HEK-293T cells (CFTR-minus cells; untransfected HEK-293T): neither
- relative stimulation as a function of CFTR phosphorylation (wild-type CFTR [5]): greater relative stimulatory effect on poorly phosphorylated CFTR channels
- time course and reversibility of the stimulation of CFTR current (wild-type CFTR [5]): rapid, stable and quickly reversible upon wash out
- voltage dependence of the stimulation of CFTR current (wild-type CFTR [5]): voltage-independent with no evidence for CFTR inhibition at any holding potential
